In patent US12060387B2, “Polypeptide-based shuttle agents for improving the transduction efficiency of polypeptide cargos to the cytosol of target eukaryotic cells, uses thereof, methods and kits relating to same” (priority 2015, dated 2024):
Like-named read-outs stand apart in the source and are kept apart here. Where a SMILES comes first, the peptide text is derived from it. Bridges are numbered along the chain shown (N, C = ends). Roman numbers before positions name the chains, in order. Where no end group is shown, it is not given here.

Columns and labels:
[1] = Cell toxicity / % cell viability by flow cytometry (cells in total events v. untreated); assay type: cell-based, Human; settings: human, HeLa cells; for viability at 1 min, 20 µM: FIG. 29I, shuttle 20 μM, 1 minute; for viability at 1 h, 3.5 µM: antibody 0.5 μM, shuttle 3.5 μM, read-out: Cell viability (%) (± St. Dev.; n = 3), FIG. 19B
Text: (§1) The fluorescence of GFP was quantified using flow cytometry (Accuri C6, Becton, Dickinson and Company (BD)). Untreated cells were used to establish a baseline in order to quantify the increased fluorescence due to the internalization of the fluorescent protein in treated cells. The percentage of cells with a fluorescence signal above the maximum fluorescence of untreated cells, “mean %” or “Pos cells (%)”, is used to identify positive fluorescent cells. “Relative fluorescence intensity (FL1-A)” corresponds to the mean of all fluorescence intensities from each cell with a fluorescent signal after fluorescent protein delivery with the shuttle agent. Also, the events scanned by flow cytometry corresponding to cells (size and granularity) were analyzed. The cellular toxicity (% cell viability) was monitored comparing the percentage of cells in the total events scanned of treated cells comparatively to untreated cells.

[2] = as above; assay type: cell-based, human; settings: human, THP-1 cells
Text: as §1

HeLa cells = experiment: as above; assay type: cell-based, Human; settings: HeLa; Protocol B; shuttle 50 μM; GFP-NLS 5 μM; 10 seconds
Text: as §1

[3] = Cell viability (%) (±St. Dev.; n = 3), HeLa, Protocol B, GFP-NLS 5 μM, read-out: Cell viability (%) (±St. Dev.; n = 3)
[4] = Cell viability (%) (±St. Dev.; n = 3), FIG. 29A, HeLa, Protocol B, shuttle 50 μM, GFP-NLS 5 μM, 10 seconds, read-out: Cell viability (%) (±St. Dev.; n = 3), FIG. 29A
[5] = Cell viability (%) (±St. Dev.; n = 3), FIG. 29F, read-out: Cell viability (%) (±St. Dev.; n = 3), FIG. 29F

Molecule: CC[C@H](C)[C@H](NC(=O)[C@H](CCCCN)NC(=O)[C@H](CCCCN)NC(=O)[C@H](Cc1ccccc1)NC(=O)[C@H](CC(C)C)NC(=O)[C@H](CCCCN)NC(=O)[C@H](Cc1c[nH]c2ccccc12)NC(=O)[C@H](CCCCN)NC(=O)[C@H](Cc1c[nH]cn1)NC(=O)[C@H](C)NC(=O)[C@H](Cc1c[nH]cn1)NC(=O)[C@H](Cc1c[nH]cn1)NC(=O)[C@H](C)NC(=O)[C@H](Cc1c[nH]cn1)NC(=O)[C@H](Cc1c[nH]cn1)NC(=O)[C@H](C)NC(=O)[C@@H](N)Cc1c[nH]cn1)C(=O)NCC(=O)N[C@@H](C)C(=O)N[C@H](C(=O)N[C@@H](CC(C)C)C(=O)N[C@@H](CCCCN)C(=O)N[C@H](C(=O)N[C@@H](CC(C)C)C(=O)N[C@H](C(=O)N[C@H](C(=O)NCC(=O)N[C@@H](Cc1ccc(O)cc1)C(=O)N[C@@H](C)C(=O)N[C@@H](CCCNC(=N)N)C(=O)N[C@@H](C)C(=O)N[C@@H](C)C(=O)N[C@@H](C)C(=O)N[C@@H](CCCNC(=N)N)C(=O)N[C@@H](CCC(N)=O)C(=O)N[C@@H](C)C(=O)N[C@@H](CCCNC(=N)N)C(=O)N[C@@H](C)C(=O)O)[C@@H](C)O)[C@@H](C)O)C(C)C)C(C)C [3HA-CM18-PTD4]
- viability at 1 min, 20 µM [1, 3]: 43.6 ± 2.8%

Molecule: CC(C)C[C@H](NC(=O)[C@H](CC(C)C)NC(=O)[C@H](CCCCN)NC(=O)[C@H](CCCCN)NC(=O)[C@H](CC(C)C)NC(=O)[C@H](CC(C)C)NC(=O)[C@H](CCCCN)NC(=O)[C@H](CCCCN)NC(=O)[C@H](CC(C)C)NC(=O)[C@H](CC(C)C)NC(=O)[C@@H](N)CS)C(=O)N[C@@H](CCCCN)C(=O)N[C@@H](CCCCN)C(=O)N[C@@H](CS)C(=O)O [C(LLKK)3C, reference compound] (H-CLLKKLLKKLLKKC-OH)
- viability at 10 s, 50 µM [1]: 61.8 ± 0.1%

Molecule: CC(C)C[C@H](NC(=O)[C@H](CC(C)C)NC(=O)[C@H](CCCCN)NC(=O)[C@H](CCCCN)NC(=O)[C@H](CC(C)C)NC(=O)[C@H](CC(C)C)NC(=O)[C@H](CCCCN)NC(=O)[C@H](CCCCN)NC(=O)[C@H](CC(C)C)NC(=O)[C@H](CC(C)C)NC(=O)[C@H](CS)NC(=O)[C@H](Cc1c[nH]cn1)NC(=O)[C@H](Cc1c[nH]cn1)NC(=O)[C@H](Cc1c[nH]cn1)NC(=O)[C@H](Cc1c[nH]cn1)NC(=O)[C@H](Cc1c[nH]cn1)NC(=O)[C@@H](N)Cc1c[nH]cn1)C(=O)N[C@@H](CCCCN)C(=O)N[C@@H](CCCCN)C(=O)N[C@@H](CS)C(=O)N[C@@H](Cc1ccc(O)cc1)C(=O)N[C@@H](C)C(=O)N[C@@H](CCCNC(=N)N)C(=O)N[C@@H](C)C(=O)N[C@@H](C)C(=O)N[C@@H](C)C(=O)N[C@@H](CCCNC(=N)N)C(=O)N[C@@H](CCC(N)=O)C(=O)N[C@@H](C)C(=O)N[C@@H](CCCNC(=N)N)C(=O)N[C@@H](C)C(=O)O [His-C(LLKK)3C-PTD4] (H-HHHHHHCLLKKLLKKLLKKCYARAAARQARA-OH)
- viability at 10 s, 50 µM [1]: 95 ± 2.7%
- viability at 1 min, 10 µM [1]: 99.5 ± 2.7%
- viability at 2 min, 10 µM [1]: 94.3 ± 3.2%
- viability at 5 min, 10 µM [1]: 80.8 ± 4.4%
- viability at 15 s, 1 µM [2]: 85.2 ± 2.8%
- viability at 0.5 min, 1 µM [2]: 86 ± 2%
- viability at 1 min, 1 µM [2]: 86.9 ± 3.8%
- viability at 2 min, 1 µM [2]: 79.6 ± 2.8%
- viability at 24 h, 0.8 µM [2]: 97.2 ± 2.2%
- viability at 72 h, 0.8 µM [2]: 76.6 ± 3.4%

Molecule: N=C(N)NCCC[C@H](NC(=O)CNC(=O)[C@@H](N)Cc1ccc(O)cc1)C(=O)N[C@@H](CCCCN)C(=O)N[C@@H](CCCCN)C(=O)N[C@@H](CCCNC(=N)N)C(=O)N[C@@H](CCCNC(=N)N)C(=O)N[C@@H](CCC(N)=O)C(=O)N[C@@H](CCCNC(=N)N)C(=O)N[C@@H](CCCNC(=N)N)C(=O)N[C@@H](CCCNC(=N)N)C(=O)N[C@@H](CS)C(=O)O [TAT-Cys, reference compound]
- viability at 10 s, 50 µM ([1]; HeLa, Protocol B, peptide 50 μM, GFP-NLS 5 μM, 10 seconds, read-out: Cell viability (%) (±St. Dev.; n = 3), FIG. 29D): 94.6 ± 0.44%

Molecule: CC[C@H](C)[C@H](NC(=O)[C@@H](NC(=O)[C@H](Cc1ccccc1)NC(=O)[C@@H](N)CCCCN)[C@@H](C)O)C(=O)N[C@H](C(=O)N[C@@H](Cc1ccccc1)C(=O)N1CCC[C@H]1C(=O)N[C@@H](Cc1c[nH]cn1)C(=O)N[C@@H](CC(N)=O)C(=O)N[C@@H](CCC(N)=O)C(=O)N[C@@H](CCCCN)C(=O)NCC(=O)N[C@@H](CC(N)=O)C(=O)N[C@@H](Cc1c[nH]c2ccccc12)C(=O)N[C@@H](CCCCN)C(=O)N[C@@H](CC(N)=O)C(=O)N[C@H](C(=O)N1CCC[C@H]1C(=O)N[C@@H](CO)C(=O)N[C@@H](CC(N)=O)C(=O)N[C@@H](Cc1ccc(O)cc1)C(=O)N[C@@H](Cc1c[nH]cn1)C(=O)N[C@@H](Cc1ccc(O)cc1)C(=O)N[C@@H](CS)C(=O)N1CCC[C@H]1C(=O)N[C@@H](Cc1ccc(O)cc1)C(=O)N[C@@H](C)C(=O)N[C@@H](CCCNC(=N)N)C(=O)N[C@@H](C)C(=O)N[C@@H](C)C(=O)N[C@@H](C)C(=O)N[C@@H](CCCNC(=N)N)C(=O)N[C@@H](CCC(N)=O)C(=O)N[C@@H](C)C(=O)N[C@@H](CCCNC(=N)N)C(=O)N[C@@H](C)C(=O)O)C(C)C)C(C)C [VSVG-PTD4]
- viability at 10 s, 50 µM ([1]; HeLa, Protocol B, shuttle 50 μM, GFP-NLS 5 μM, 10 seconds, read-out: Cell viability (%) (±St. Dev.; n = 3), FIG. 29E): 100%

Molecule: GLFEALLELLESLWELLLEAYARAAARQARA [JST-PTD4]
- viability at 10 s, 50 µM ([1]; Cell viability (%) (±St. Dev.; n = 3), FIG. 29E, read-out: Cell viability (%) (±St. Dev.; n = 3), FIG. 29E): 98.9 ± 0.57%

Molecule: HHHAHHHKWKLFKKIGAVLKVLTTGYARAAARQARA [HA-CM18-PTD4]
- viability at 1 min, 20 µM [1, 3]: 68.3 ± 4.1%

Molecule: HHHHHHHHHHHHKWKLFKKIGAVLKVLTTGYARAAARQARA [12His-CM18-PTD4]
- viability at 1 min, 20 µM [1, 3]: 33.4 ± 4.3%

Molecule: HHHHHHKKALLALALHHLAHLALHLALALKKAYARAAARQARA [His-LAH4-PTD4]
- viability at 10 s, 50 µM ([1]; HeLa, Protocol B, shuttle 50 μM, GFP-NLS 5 μM, 10 seconds, read-out: Cell viability (%) (±St. Dev.; n = 3), FIG. 29A): 98 ± 1.5%

Molecule: HHHHHHKWKLFKKIGAVLKVLTTGGWTLNSAGYLLKINLKALAALAKKIL [His-CM18-Transportan (TPT)]
- viability at 10 s, 50 µM [1, 4]: 41.3 ± 3.3%
- Cell viability (%) (±St. Dev.; n = 3), FIG. 29E (HeLa cells): 41.3 ± 3.29%

Molecule: HHHHHHKWKLFKKIGAVLKVLTTGRRRRRRRRR [His-CM18-9Arg]
- viability at 10 s, 50 µM [1, 4]: 45.8 ± 5.4%
- Cell viability (%) (±St. Dev.; n = 3), FIG. 29E (HeLa cells): 45.8 ± 3.53%

Molecule: HHHHHHKWKLFKKIGAVLKVLTTGYARAAARQARAHHHHHH [His-CM18-PTD4-His]
- viability at 1 min, 10 µM ([1]; Cell viability (%) (±St. Dev.; n = 3), FIG. 29G, HeLa, Protocol B, shuttle 10 μM, GFP-NLS 5 μM, incubation 1 min, read-out: Cell viability (%) (±St. Dev.; n = 3), FIG. 29G): 68.1 ± 2.7%
- viability at 2 min, 10 µM ([1]; Cell viability (%) (±St. Dev.; n = 3), FIG. 29G, HeLa, Protocol B, shuttle 10 μM, GFP-NLS 5 μM, incubation 2 min, read-out: Cell viability (%) (±St. Dev.; n = 3), FIG. 29G): 61.6 ± 3.2%
- viability at 5 min, 10 µM ([1]; Cell viability (%) (±St. Dev.; n = 3), FIG. 29G, HeLa, Protocol B, shuttle 10 μM, GFP-NLS 5 μM, incubation 5 min, read-out: Cell viability (%) (±St. Dev.; n = 3), FIG. 29G): 41.2 ± 4.4%
- viability at 1 min, 20 µM [1, 3]: 78.6 ± 1.1%

Molecule: HHHHHHYARAAARQARA [His-PTD4, reference compound]
- viability at 10 s, 50 µM [1]: 96.5 ± 0.28%

Molecule: HHHKWKLFKKIGAVLKVLTTGYARAAARQARA [3His-CM18-PTD4]
- viability at 1 min, 20 µM [1, 3]: 39.2 ± 3.3%

Molecule: I: KWKLFKKIGAVLKVLTTGRQIKIWFQNRRMKWKKC / II: KWKLFKKIGAVLKVLTTGRQIKIWFQNRRMKWKKC (disulfide I:35-II:35) [dCM18-Penetratin-Cys]
- viability at 1 h, 3.5 µM ([1]; HeLa): 74 ± 9%

Molecule: KWKLFKKIGAVLKVLTTG [CM18, reference compound]
- viability at 10 s, 50 µM ([1]; Cell viability (%) (±St. Dev.; n = 3), FIG. 29D, HeLa, Protocol B, peptide 50 μM, GFP-NLS 5 μM, 10 seconds, read-out: Cell viability (%) (±St. Dev.; n = 3), FIG. 29D): 95 ± 1.2%

Molecule: KWKLFKKIGAVLKVLTTGHHHHHHYARAAARQARA [CM18-His-PTD4]
- viability at 1 min, 20 µM [1, 3]: 57.7 ± 4.2%

Molecule: KWKLFKKIGAVLKVLTTGRQIKIWFQNRRMKWKKC [CM18-Penetratin-Cys]
- viability at 1 h, 3.5 µM ([1]; HeLa): 73 ± 9.5%

Molecule: LIRLWSHLIHIWFQNRRLKWKKKYARAAARQARA [EB1-PTD4]
- viability at 10 s, 50 µM [1]: 39 ± 5.6%
- viability at 1 min, 10 µM [1]: 61.7 ± 2.7%
- viability at 2 min, 10 µM [1]: 56.6 ± 3.2%
- viability at 5 min, 10 µM [1]: 55.8 ± 4.4%

Molecule: MHHHHHHKWKLFKKIGAVLKVLTTGYGRKKRRQRRRC [Met-His-CM18-TAT-Cys]
- viability at 10 s, 50 µM ([1]; Cell viability (%) (±St. Dev.; n = 3), FIG. 29E, HeLa, Protocol B, shuttle 50 μM, GFP-NLS 5 μM, 10 seconds, read-out: Cell viability (%) (±St. Dev.; n = 3), FIG. 29E): 41.4 ± 3.91%

Molecule: RRLSYSRRRFWEAKLAKALAKALAKHLAKALAKALKACEA [SynB3-KALA]
- viability at 10 s, 50 µM [1, 5]: 91.1 ± 0.82%

Molecule: RRRRRRRRRWEAKLAKALAKALAKHLAKALAKALKACEA [9Arg-KALA]
- viability at 10 s, 50 µM [1, 5]: 62.8 ± 5.11%

Molecule: WEAKLAKALAKALAKHLAKALAKALKACEA [KALA, reference compound]
- viability at 10 s, 50 µM [1]: 84 ± 0.7%

Molecule: YARAAARQARA [PTD4, reference compound]
- viability at 10 s, 50 µM ([1]; Cell viability (%) (±St. Dev.; n = 3), FIG. 29D, read-out: Cell viability (%) (±St. Dev.; n = 3), FIG. 29D): 94 ± 4.5%
